Results from paper PMC10254170, “Diastereoselective Synthesis of the Borylated D-Galactose Monosaccharide 3-Boronic-3-Deoxy-D-Galactose and Biological Evaluation in Glycosidase Inhibition and in Cancer for Boron Neutron Capture Therapy (BNCT)” (Molecules, 2023).
Read-outs that look alike come from different tables or passages of the source.

Columns and labels:
U87 (glioblastoma) = assay: Cancer screening (MTT growth inhibition), U87; assay type: cell-based; conditions: 25 µM of drug, 72 h, n = 3, mean ± SEM; for inhibition at 25 µM: read-out: Percentage (%) cell growth inhibition
Procedure: (§1) All test agents were prepared as stock solutions (20 mM) in dimethyl sulfoxide (DMSO) and stored at −20 °C. Cell lines used in the study included: HT29 (colorectal carcinoma), U87 and SJ-G2 (glioblastoma), MCF-7 (breast carcinoma), A2780 (ovarian carcinoma), H460 (lung carcinoma), A431 (skin carcinoma), Du145 (prostate carcinoma), BE2-C (neuroblastoma), MiaPaCa-2 (pancreatic carcinoma), SMA560 (spontaneous murine astrocytoma), and ADDP (Cis Res Ovarian), together with one non-tumor-derived normal breast cell line (MCF10A). All cell lines were incubated in a humidified atmosphere with 5 % CO2 at 37 °C. The cancer cell lines were maintained in Dulbecco’s modified Eagle’s medium (DMEM; Sigma, Australia) supplemented with fetal bovine serum (10%), sodium pyruvate (10 mM), penicillin (100 IUmL^−1), streptomycin (100 µg mL^−1), and L-glutamine (2 mM).
(§2) Growth inhibition was determined by plating cells in duplicate in medium (100 µL) at a density of 2500–4000 cells per well in 96-well plates. On day 0 (24 h after plating), when the cells are in logarithmic growth, medium (100 µL) with or without the test agent was added to each well. After 72 h of drug exposure, growth inhibitory effects were evaluated using the (3-(4,5-dimethyltiazol-2-yl)-2,5-diphenyltetrazolium bromide) (MTT) assay and absorbance read at 540 nm. The percentage growth inhibition was calculated at a fixed concentration of 25 µM, based on the difference between the optical density values on day 0 and those at the end of drug exposure. Each data point is the mean ± the standard error of the mean (SEM) calculated from three replicates, which were performed on separate occasions and in separate cell line passages.

[1] = target: T1, coffee beans α-galactosidase (Coffea arabica, UniProt Q42656); assay: Glycosidase inhibition, coffee beans α-galactosidase; assay type: biochemical
T1 construct: purchased Sigma-Aldrich Co
T1 sequence (Q42656 16-378): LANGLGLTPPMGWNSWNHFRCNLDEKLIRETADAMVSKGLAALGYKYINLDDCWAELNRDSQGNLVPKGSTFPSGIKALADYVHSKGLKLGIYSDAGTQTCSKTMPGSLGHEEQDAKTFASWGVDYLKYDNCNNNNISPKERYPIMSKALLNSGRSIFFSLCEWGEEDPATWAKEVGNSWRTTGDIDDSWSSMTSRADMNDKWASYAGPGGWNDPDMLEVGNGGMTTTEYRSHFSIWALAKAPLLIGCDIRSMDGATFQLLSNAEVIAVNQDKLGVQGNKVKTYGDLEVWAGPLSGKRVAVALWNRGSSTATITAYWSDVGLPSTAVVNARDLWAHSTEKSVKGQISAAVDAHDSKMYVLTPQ
Description: (§3) Glycosidase modulation studies need to explore selectivity as well as potency. Our drugs and controls are therefore screened against a panel of glycosidases in methanol (Table 1) to identify the glycosidase-related disease area(s), selectivity profile, and potency of biological action for each drug. The presence of organic boron covalently bonded to the drug structure also grants a reduced toxicity profile. Following the glycosidase inhibition range recommendations, an IC50 value >250 μm denotes weak inhibition, 100–249 μm denotes moderate inhibition, 10–99 μm good inhibition, 0.1–9 μm potent inhibition, and <0.1 μm very potent inhibition. […] Our boronated D-galactose 7 represents a novel lead in glycosidase inhibition.
(§4) The glycosidases screened are the following: rice α-glucosidase, yeast α-glucosidase, Bacillus α-glucosidase, rat intestinal maltase α-glucosidase, almond β-glucosidase, bovine liver β-glucosidase, coffee beans α-galactosidase, bovine liver β-galactosidase, Jack bean α-mannosidase, snail β-mannosidase, Penicillium decumbens α-L-rhamnosidase, bovine kidney α-L-fucosidase, Eschierichia coli β-glucuronidase, bovine liver β-glucuronidase, porcine kidney trehalase, Aspergillus niger amyloglucosidase, and bovine kidney N-acetyl-β-glucosaminidase. The disease areas for each glycosidase are summarized in [1].
(§5) The enzymes α-glucosidase (from yeast), β-glucosidases (from almond and bovine liver), α-galactosidase (from coffee beans), β-galactosidase (from bovine liver), α-mannosidase (from Jack bean), β-mannosidase (from snail), α-L-rhamnosidase (from Penicillium decumbens), α-L-fucosidase (from bovine kidney), trehalase (from porcine kidney), β-glucuronidases (from E. coli and bovine liver), amyloglucosidase (from A. niger), para-nitrophenyl glycosides, and various disaccharides were purchased from Sigma-Aldrich Co.
(§6) Brush border membranes were prepared from the rat small intestine according to the method of Kessler et al. and were assayed at pH 6.8 for rat intestinal maltase using maltose. For rat intestinal maltase, porcine kidney trehalase, and A. niger amyloglucosidase activities, the reaction mixture contained 25 mM maltose and the appropriate amount of enzyme, and the incubations were performed for 10–30 min at 37 °C. The reaction was stopped by heating at 100 °C for 3 min. After centrifugation (600 g; 10 min), the resulting reaction mixture was added to the Glucose CII-test Wako (Wako Pure Chemical Ind., Osaka, Japan). The absorbance at 505 nm was measured to determine the amount of the released D-glucose. Other glycosidase activities were determined using an appropriate para-nitrophenyl glycoside as substrate at the optimum pH of each enzyme. The reaction mixture contained 2 mM of the substrate and the appropriate amount of enzyme. The reaction was stopped by the addition of 400 mM Na2CO3. The released para-nitrophenol was measured spectrometrically at 400 nm. All reactions run in methanol.

H460 (lung carcinoma) = assay: Cancer screening (MTT growth inhibition), H460; assay type: cell-based; conditions: 72 h, n = 3, mean ± SEM; for inhibition at 25 µM: Homo sapiens, NCI-H460, 25 µM of drug, read-out: Percentage (%) cell growth inhibition
Procedure: as §1, §2

[2] = test system: MCF10A (non-tumor-derived normal breast cell line); assay: Cancer screening (MTT growth inhibition), MCF10A; assay type: cell-based; conditions: 25 µM of drug, 72 h, n = 3, mean ± SEM; for inhibition at 25 µM: Homo sapiens, MCF-10A, read-out: Percentage (%) cell growth inhibition
Procedure: as §1
The non-cancer MCF10A cell line was maintained in DMEM:F12 (1:1) cell culture media, 5% heat inactivated horse serum, and supplemented with penicillin (50 IUmL^−1), streptomycin (50 µg mL^−1), HEPES (20 mM), L-glutamine (2 mM), epidermal growth factor (20 ng mL^−1), hydrocortisone (500 ng mL^−1), cholera toxin (100 ng mL^−1), and insulin ([…]).
as §2

SJ-G2 (glioblastoma) = assay: Cancer screening (MTT growth inhibition), SJ-G2; assay type: cell-based; conditions: 72 h, n = 3, mean ± SEM; for inhibition at 25 µM: SJ-G2, 25 µM of drug, read-out: Percentage (%) cell growth inhibition
Procedure: as §1, §2

[3] = test system: Du145 (prostate carcinoma); assay: Cancer screening (MTT growth inhibition), Du145; assay type: cell-based; conditions: 72 h, n = 3, mean ± SEM; for inhibition at 25 µM: Homo sapiens, DU-145, 25 µM of drug, read-out: Percentage (%) cell growth inhibition
Procedure: as §1, §2

E. coli β-glucuronidase = target: T2, E. coli β-glucuronidase (Escherichia coli, UniProt P05804); assay: Glycosidase inhibition, E. coli β-glucuronidase; assay type: biochemical
T2 construct: purchased Sigma-Aldrich Co
T2 sequence (P05804 whole entry): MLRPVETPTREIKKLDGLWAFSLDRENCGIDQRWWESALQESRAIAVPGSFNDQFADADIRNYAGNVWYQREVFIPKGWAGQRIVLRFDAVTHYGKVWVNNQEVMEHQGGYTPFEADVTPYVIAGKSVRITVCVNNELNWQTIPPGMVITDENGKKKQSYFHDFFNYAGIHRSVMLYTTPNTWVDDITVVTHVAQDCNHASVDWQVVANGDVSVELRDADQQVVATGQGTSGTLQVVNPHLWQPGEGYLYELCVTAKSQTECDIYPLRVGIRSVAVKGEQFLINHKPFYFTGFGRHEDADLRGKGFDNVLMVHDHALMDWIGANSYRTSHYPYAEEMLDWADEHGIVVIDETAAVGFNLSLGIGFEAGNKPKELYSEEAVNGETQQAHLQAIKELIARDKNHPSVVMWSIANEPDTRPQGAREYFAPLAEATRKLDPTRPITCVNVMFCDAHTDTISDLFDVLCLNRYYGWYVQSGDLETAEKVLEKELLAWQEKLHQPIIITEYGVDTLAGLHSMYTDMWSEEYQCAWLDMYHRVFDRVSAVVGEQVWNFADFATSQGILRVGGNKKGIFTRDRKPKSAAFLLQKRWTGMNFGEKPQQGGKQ
Description: as §3, §4, §5, §6

[4] = test system: rat intestinal maltase α-glucosidase; assay: Glycosidase inhibition, rat intestinal maltase; assay type: biochemical; conditions: for inhibition %: in methanol
Description: as §3, §4, §6

BE2-C (neuroblastoma) = assay: Cancer screening (MTT growth inhibition), BE2-C; assay type: cell-based; conditions: 25 µM of drug, 72 h, n = 3, mean ± SEM; for inhibition at 25 µM: Homo sapiens, BE(2)-C, read-out: Percentage (%) cell growth inhibition
Procedure: as §1, §2

[5] = target: T3, Aspergillus niger amyloglucosidase (Aspergillus niger, UniProt P69328); assay: Glycosidase inhibition, A. niger amyloglucosidase; assay type: biochemical
T3 construct: purchased Sigma-Aldrich Co
T3 sequence (P69328 25-640): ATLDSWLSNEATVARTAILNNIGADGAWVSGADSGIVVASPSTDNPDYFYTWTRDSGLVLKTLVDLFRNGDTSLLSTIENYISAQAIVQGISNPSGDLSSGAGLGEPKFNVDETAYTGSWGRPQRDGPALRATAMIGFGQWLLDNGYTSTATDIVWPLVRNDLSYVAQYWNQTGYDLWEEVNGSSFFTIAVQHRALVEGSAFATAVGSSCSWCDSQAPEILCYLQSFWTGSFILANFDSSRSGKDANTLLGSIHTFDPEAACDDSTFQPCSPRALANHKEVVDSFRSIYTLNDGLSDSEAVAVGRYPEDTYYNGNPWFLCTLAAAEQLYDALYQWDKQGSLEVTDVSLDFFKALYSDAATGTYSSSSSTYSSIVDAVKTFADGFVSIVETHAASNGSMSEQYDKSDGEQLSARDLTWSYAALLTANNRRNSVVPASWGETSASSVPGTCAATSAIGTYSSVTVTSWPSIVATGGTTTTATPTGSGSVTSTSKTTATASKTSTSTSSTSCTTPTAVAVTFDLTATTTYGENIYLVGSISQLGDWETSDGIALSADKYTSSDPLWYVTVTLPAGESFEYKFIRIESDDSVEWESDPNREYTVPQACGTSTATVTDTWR
Description: as §3, §4, §5, §6

[6] = test system: MiaPaCa-2 (pancreatic carcinoma); assay: Cancer screening (MTT growth inhibition), MIA-Pa-Ca2; assay type: cell-based; conditions: 72 h, n = 3, mean ± SEM; for inhibition at 25 µM: Homo sapiens, MIA PaCa-2, 25 µM of drug, read-out: Percentage (%) cell growth inhibition
Procedure: as §1, §2

snail β-mannosidase = assay: Glycosidase inhibition, snail β-mannosidase; assay type: biochemical; conditions: for inhibition %: in methanol
Description: as §3, §4, §5, §6

MCF-7 (breast carcinoma) = assay: Cancer screening (MTT growth inhibition), MCF-7; assay type: cell-based; conditions: 72 h, n = 3, mean ± SEM; for inhibition at 25 µM: Homo sapiens, MCF7, 25 µM of drug, read-out: Percentage (%) cell growth inhibition
Procedure: as §1, §2

[7] = in methanol, read-out: inhibition %

Row | Compound | inhibition at 25 µM (U87 (glioblastoma)) [%] | inhibition at 100 µM [1, 7] [%] | inhibition at 100 µM ([1]; read-out: NI: No inhibition) [%] | inhibition at 25 µM (H460 (lung carcinoma)) [%] | inhibition at 25 µM [2] [%] | inhibition at 25 µM (SJ-G2 (glioblastoma)) [%] | inhibition at 25 µM [3] [%] | inhibition at 100 µM (E. coli β-glucuronidase; [7]) [%] | inhibition at 100 µM (E. coli β-glucuronidase; read-out: NI: No inhibition) [%] | NI: No inhibition ([4]; at 100 μM) | inhibition % ([4]; at 100 μM) [%] | inhibition at 25 µM (BE2-C (neuroblastoma)) [%] | inhibition at 100 µM [5, 7] [%] | inhibition at 100 µM ([5]; read-out: NI: No inhibition) [%] | inhibition at 25 µM [6] [%] | NI: No inhibition (snail β-mannosidase; at 100 μM) | inhibition % (snail β-mannosidase; at 100 μM) [%] | inhibition at 25 µM (MCF-7 (breast carcinoma)) [%] | further results
1 | CC1(C)OCC(C2OC3OC(C)(C)OC3C2[B-]23OCC[NH+]2CCO3)O1 [Compound 6, 3-Deoxy-3-Boronodiethanolamine-1,2:5,6-Di-O-isopropylidene-α-D-galactofuranose] | 8 ± 4 | 0.5 | < 50 | 9 ± 2 | 5 ± 1 | < 0 | 0 | 3.5 | < 50 | NI (No inhibition (less than 50% inhibition at 100 μM)) | 3.1 | 2 ± 5 | 0 | < 50 | 3 ± 1 | NI (No inhibition (less than 50% inhibition at 100 μM)) | 0 | 14 ± 5 | 
2 | Borocaptate sodium [BSH] |  |  |  |  |  |  |  |  |  |  |  |  |  |  |  |  |  |  | Percentage (%) cell growth inhibition (U87 (glioblastoma)): <0%; inhibition % ([1]; at 1000 μM, in methanol): 12.3%; Percentage (%) cell growth inhibition (H460 (lung carcinoma); 25 µM of drug): 8 ± 2%; Percentage (%) cell growth inhibition [2]: 8 ± 3%; Percentage (%) cell growth inhibition (SJ-G2 (glioblastoma); 25 µM of drug): 3 ± 8%; Percentage (%) cell growth inhibition ([3]; 25 µM of drug): 0 ± 8%; inhibition % (E. coli β-glucuronidase; at 1000 μM, in methanol): 6%; NI: No inhibition ([4]; at 1000 μM): NI (No inhibition (less than 50% inhibition at 1000 μM)); inhibition % ([4]; at 1000 μM): 0%; Percentage (%) cell growth inhibition (BE2-C (neuroblastoma)): 10 ± 6%; inhibition % ([5]; at 1000 μM, in methanol): 0%; Percentage (%) cell growth inhibition ([6]; 25 µM of drug): 2 ± 6%; NI: No inhibition (snail β-mannosidase; at 1000 μM): NI (No inhibition (less than 50% inhibition at 1000 μM)); inhibition % (snail β-mannosidase; at 1000 μM): 19.2%; Percentage (%) cell growth inhibition (MCF-7 (breast carcinoma); 25 µM of drug): 15 ± 3%
3 | N[C@@H](Cc1ccc(B(O)O)cc1)C(=O)O [BPA, 4-borono-L-phenylalanine] | < 0 | 4.3 | < 50 | 7 ± 8 | 4 ± 1 | 5 ± 8 | 19 ± 10 | 0.5 | < 50 | NI (No inhibition (less than 50% inhibition at 100 μM)) | 0 | 13 ± 10 | 0 | < 50 | 3 ± 3 | NI (No inhibition (less than 50% inhibition at 100 μM)) | 2.1 | < 0 | 
